Laboratory results from US5140014A (Abbott Laboratories, priority 1989, dated 1992).
≈ marks a conversion by molar mass, not a printed value. Read-outs that look alike come from different tables or passages of the source.

Experiments:
Test in all cases: in vitro antibacterial activity, agar dilution method (MIC)
Assay type in all cases: cell-based
[1] = tested on: Acinetobacter Sp; conditions: strain CMX 669, BHI agar, 20-24 hours
How it was run: (§1)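 Agar dilution in BHI agar, usually 12 two-fold dilutions from a 2,000 ug/mL stock. About 10^4 organisms from overnight BHI broth cultures (diluted 1:100) were spotted and incubated at 35-37 °C for 20-24 h. MIC was the lowest concentration giving no growth, slight haze or sparse colonies versus growth control.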

[2] = tested on: Enterobacter Aerogenes; conditions: BHI agar, 20-24 hours
How it was run: as §1

[3] = tested on: Enterococcus Faecium; conditions: BHI agar, 20-24 hours
How it was run: as §1

[4] = tested on: Haemophilus Influenzae; conditions: BHI agar, 20-24 hours
How it was run: as §1

[5] = tested on: Klebsiella Pneumoniae; conditions: BHI agar, 20-24 hours
How it was run: as §1

[6] = tested on: Micrococcus Luteus; conditions: BHI agar, 20-24 hours
How it was run: (§2)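 Agar dilution in Brain Heart Infusion agar, usually 12 two-fold dilutions from a 2,000 ug/mL stock. Overnight BHI broth cultures were diluted 1:100 (1:10 for slow growers such as Streptococcus), and ~10^4 organisms were spotted per plate. MIC read after 20-24 h at 35°-37° C as lowest concentration giving no growth, slight haze or sparse colonies versus growth control.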

[7] = tested on: Providencia Stuartii; conditions: strain CMX 640, BHI agar, 20-24 hours
How it was run: as §1

[8] = tested on: Pseudomonas Aeruginosa; conditions: BHI agar, 20-24 hours
How it was run: as §1

[9] = tested on: Staphylococcus Aureus; conditions: BHI agar, 20-24 hours
How it was run: as §1

[10] = tested on: Staphylococcus Epidermidis; conditions: strain 3519, BHI agar, 20-24 hours
How it was run: as §1

[11] = tested on: Streptococcus Agalactiae; conditions: strain CMX 508, BHI agar, 20-24 hours
How it was run: as §1

[12] = tested on: Streptococcus Bovis; conditions: strain A5169, BHI agar, 20-24 hours
How it was run: as §1

[13] = tested on: Streptococcus Pyogenes; conditions: BHI agar, 20-24 hours
How it was run: as §2

[14] = tested on: Escherichia Coli; conditions: BHI agar, 20-24 hours
How it was run: (§3)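 Agar dilution on BHI agar, typically 12 two-fold dilutions prepared from a 2,000 ug/mL stock solution. Plates were spot-inoculated with about 10^4 organisms from overnight BHI broth cultures, then incubated 20-24 h at 35°-37° C. MIC was the lowest concentration giving no growth, a slight haze or sparse isolated colonies compared with the growth control.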

[15] = tested on: Pseudomonas Cepacia; conditions: strain 296I, BHI agar, 20-24 hours
How it was run: as §3

In the case of `CCC1OC(=O)CC(O)C(C)C(OC2OC(C)C(O)C(N(C)C)C2O)C(CC=O)CC(C)C(N(C)C)CCC(C)=CC1COC(C)=O` (stereo not shown) [Example 6, [9R]-23-O-Acetyl-9-deoxo-10,11-dihydro-9-N,N-dimethylamino-5-O-mycaminosyl-tylonide], the MIC ([1]; Acinetobacter, read-out: MIC) is reported as > 100 µg/mL, the MIC ([2]; Klebsiella aerogenes, ATCC13048, strain ATCC 13048, read-out: MIC) is reported as > 100 µg/mL and the MIC ([3]; Enterococcus faecium, ATCC8043, strain ATCC 8043, read-out: MIC) is reported as 1.56 µg/mL (≈ 2.33 µM). It also gave an MIC ([4]; Haemophilus influenzae, ATCC9795, strain ATCC 9795, read-out: MIC) of 4 µg/mL (≈ 5.96 µM), an MIC ([4]; Haemophilus influenzae, ATCC10211, strain ATCC 10211, read-out: MIC) of 4 µg/mL (≈ 5.96 µM) and an MIC ([4]; Haemophilus influenzae, ATCC19418, strain ATCC 19418, read-out: MIC) of 8 µg/mL (≈ 11.9 µM). The MIC ([4]; Haemophilus influenzae, strain 504, read-out: MIC) was 2 µg/mL (≈ 2.98 µM), the MIC ([4]; Haemophilus influenzae, strain 519A, read-out: MIC) was 2 µg/mL (≈ 2.98 µM) and the MIC ([4]; Haemophilus influenzae, strain 566A, read-out: MIC) was 8 µg/mL (≈ 11.9 µM). For the same molecule, the MIC ([4]; Haemophilus influenzae, strain 632A, read-out: MIC) was 8 µg/mL (≈ 11.9 µM), the MIC ([4]; Haemophilus influenzae, strain 747C, read-out: MIC) was 8 µg/mL (≈ 11.9 µM) and the MIC ([4]; Haemophilus influenzae, strain 751, read-out: MIC) was > 16 µg/mL. It also gave an MIC ([4]; Haemophilus influenzae, strain 1177, read-out: MIC) of 0.25 µg/mL (≈ 0.373 µM), an MIC ([4]; Haemophilus influenzae, strain 1435, read-out: MIC) of 4 µg/mL (≈ 5.96 µM) and an MIC ([4]; Haemophilus influenzae, strain DILL AMP R, read-out: MIC) of 4 µg/mL (≈ 5.96 µM). For the same molecule, the MIC ([4]; Haemophilus influenzae, strain SOL AMP R, read-out: MIC) was 8 µg/mL (≈ 11.9 µM), the MIC ([4]; Haemophilus influenzae, strain SPK AMP R, read-out: MIC) was 8 µg/mL (≈ 11.9 µM) and the MIC ([4]; strain 503B) was 8 µg/mL (≈ 11.9 µM). For the same molecule, the MIC ([4]; strain ATCC 43095) was 8 µg/mL (≈ 11.9 µM), the MIC ([5]; Klebsiella pneumoniae, ATCC8045, strain ATCC 8045, read-out: MIC) was > 100 µg/mL and the MIC ([6]; Micrococcus luteus, ATCC4698, strain ATCC 4698, read-out: MIC) was 1.56 µg/mL (≈ 2.33 µM). For the same molecule, the MIC ([6]; Micrococcus luteus, ATCC9341, strain ATCC 9341, read-out: MIC) was 0.78 µg/mL (≈ 1.16 µM), the MIC ([7]; Providencia stuartii, read-out: MIC) was > 100 µg/mL and the MIC ([8]; Pseudomonas aeruginosa, strain A5007, read-out: MIC) was > 100 µg/mL. For the same molecule, the MIC ([8]; Pseudomonas aeruginosa, strain BMH10, read-out: MIC) was > 100 µg/mL, the MIC ([8]; Pseudomonas aeruginosa, strain K799/61, read-out: MIC) was 6.2 µg/mL (≈ 9.24 µM) and the MIC ([8]; Pseudomonas aeruginosa, strain K799/WT, read-out: MIC) was > 100 µg/mL. For the same molecule, the MIC ([9]; Staphylococcus aureus, ATCC6538P, strain ATCC 6538P, read-out: MIC) was 3.1 µg/mL (≈ 4.62 µM), the MIC ([9]; Staphylococcus aureus, NCTC10649, strain NCTC 10649, read-out: MIC) was 3.1 µg/mL (≈ 4.62 µM) and the MIC ([9]; Staphylococcus aureus, strain 45, read-out: MIC) was 3.1 µg/mL (≈ 4.62 µM). It also gave an MIC ([9]; Staphylococcus aureus, strain 45 RAR2, read-out: MIC) of 6.2 µg/mL (≈ 9.24 µM), an MIC ([9]; Staphylococcus aureus, strain 642A, read-out: MIC) of 6.2 µg/mL (≈ 9.24 µM) and an MIC ([9]; Staphylococcus aureus, strain A5177, read-out: MIC) of 3.1 µg/mL (≈ 4.62 µM). For the same molecule, the MIC ([9]; Staphylococcus aureus, strain CMX 553, read-out: MIC) was 6.2 µg/mL (≈ 9.24 µM), the MIC ([10]; Staphylococcus epidermidis, read-out: MIC) was 3.1 µg/mL (≈ 4.62 µM) and the MIC ([11]; Streptococcus agalactiae, read-out: MIC) was 0.39 µg/mL (≈ 0.581 µM). For the same molecule, the MIC ([12]; Streptococcus equinus, read-out: MIC) was 0.1 µg/mL (≈ 0.149 µM), the MIC ([13]; Streptococcus pyogenes, strain 930 CONST, read-out: MIC) was > 100 µg/mL and the MIC ([13]; Streptococcus pyogenes, strain 2548 INDUC, read-out: MIC) was 3.1 µg/mL (≈ 4.62 µM). For the same molecule, the MIC ([13]; Streptococcus pyogenes, strain EES61, read-out: MIC) was 0.39 µg/mL (≈ 0.581 µM), the MIC ([14]; Escherichia coli, strain DC-2, read-out: MIC) was 100 µg/mL (≈ 149 µM) and the MIC ([14]; Escherichia coli, strain JUHL, read-out: MIC) was > 100 µg/mL. For the same molecule, the MIC ([14]; Escherichia coli, strain KNK 437, read-out: MIC) was > 100 µg/mL, the MIC ([14]; Escherichia coli, strain SS, read-out: MIC) was 1.56 µg/mL (≈ 2.33 µM) and the MIC ([14]; strain H560) was 50 µg/mL (≈ 74.5 µM). For the same molecule, the MIC ([15]; Burkholderia cepacia, read-out: MIC) was > 100 µg/mL.

With `CCC1OC(=O)CC(O)C(C)C(OC2OC(C)C(O)C(N(C)C)C2O)C(CC=O)CC(C)C(N(C)C)CCC(C)=CC1COC(C)=O` (stereo not shown) [Example 7, [9S]-23-O-Acetyl-9-deoxo-10,11-dihydro-9-N,N-dimethylamino-5-O-mycaminosyl-tylonide] the MIC [1] was 50 µg/mL (≈ 74.5 µM), the MIC ([2]; strain ATCC 13048) was > 100 µg/mL and the MIC ([3]; strain ATCC 8043) was 1.56 µg/mL (≈ 2.33 µM). The MIC ([4]; Haemophilus influenzae, strain 588A, read-out: MIC) was 4 µg/mL (≈ 5.96 µM), the MIC ([4]; strain 503B) was 2 µg/mL (≈ 2.98 µM) and the MIC ([4]; strain 519A) was 1 µg/mL (≈ 1.49 µM). For the same molecule, the MIC ([4]; strain 566A) was 4 µg/mL (≈ 5.96 µM), the MIC ([4]; strain 747C) was 4 µg/mL (≈ 5.96 µM) and the MIC ([4]; strain 751) was 16 µg/mL (≈ 23.8 µM). The MIC ([4]; strain 1177) was 0.5 µg/mL (≈ 0.745 µM), the MIC ([4]; strain 1435) was 4 µg/mL (≈ 5.96 µM) and the MIC ([4]; strain ATCC 9795) was 4 µg/mL (≈ 5.96 µM). It also gave an MIC ([4]; strain ATCC 10211) of 4 µg/mL (≈ 5.96 µM), an MIC ([4]; strain ATCC 19418) of 4 µg/mL (≈ 5.96 µM) and an MIC ([4]; strain ATCC 43095) of 2 µg/mL (≈ 2.98 µM). It also gave an MIC ([4]; strain DILL AMP R) of 4 µg/mL (≈ 5.96 µM), an MIC ([4]; strain SOL AMP R) of 4 µg/mL (≈ 5.96 µM) and an MIC ([4]; strain SPK AMP R) of 4 µg/mL (≈ 5.96 µM). For the same molecule, the MIC ([5]; strain ATCC 8045) was 100 µg/mL (≈ 149 µM), the MIC ([6]; strain ATCC 4698) was 1.56 µg/mL (≈ 2.33 µM) and the MIC ([6]; strain ATCC 9341) was 0.78 µg/mL (≈ 1.16 µM). The MIC [7] was > 100 µg/mL, the MIC ([8]; strain A5007) was > 100 µg/mL and the MIC ([8]; strain BMH10) was 100 µg/mL (≈ 149 µM). For the same molecule, the MIC ([8]; strain K799/61) was 3.1 µg/mL (≈ 4.62 µM), the MIC ([8]; strain K799/WT) was > 100 µg/mL and the MIC ([9]; strain 45) was 3.1 µg/mL (≈ 4.62 µM). The MIC ([9]; strain 45 RAR2) was 6.2 µg/mL (≈ 9.24 µM), the MIC ([9]; strain 642A) was 6.2 µg/mL (≈ 9.24 µM) and the MIC ([9]; strain A5177) was 6.2 µg/mL (≈ 9.24 µM). For the same molecule, the MIC ([9]; strain ATCC 6538P) was 6.2 µg/mL (≈ 9.24 µM), the MIC ([9]; strain CMX 553) was 6.2 µg/mL (≈ 9.24 µM) and the MIC ([9]; strain NCTC 10649) was 6.2 µg/mL (≈ 9.24 µM). For the same molecule, the MIC [10] was 1.56 µg/mL (≈ 2.33 µM), the MIC [11] was 0.39 µg/mL (≈ 0.581 µM) and the MIC [12] was 0.1 µg/mL (≈ 0.149 µM). For the same molecule, the MIC ([13]; strain 930 CONST) was > 100 µg/mL, the MIC ([13]; strain 2548 INDUC) was 1.56 µg/mL (≈ 2.33 µM) and the MIC ([13]; strain EES61) was 0.78 µg/mL (≈ 1.16 µM). The MIC ([14]; strain DC-2) was 50 µg/mL (≈ 74.5 µM), the MIC ([14]; strain H560) was 12.5 µg/mL (≈ 18.6 µM) and the MIC ([14]; strain JUHL) was 100 µg/mL (≈ 149 µM). For the same molecule, the MIC ([14]; strain KNK 437) was 50 µg/mL (≈ 74.5 µM), the MIC ([14]; strain SS) was 0.78 µg/mL (≈ 1.16 µM) and the MIC [15] was > 100 µg/mL.
